Test results published in ChEMBL document CHEMBL1151887 (Bioorg Med Chem, 2009).

Key:
Adenosine receptor A3 [1] = target: T1, Adenosine receptor A3 (Homo sapiens, UniProt P0DMS8); assay: Displacement of [125I]I-AB-MECA from human recombinant adenosine A3 receptor expressed in CHO cells by liquid scintillation counting
T1 sequence (P0DMS8 whole entry): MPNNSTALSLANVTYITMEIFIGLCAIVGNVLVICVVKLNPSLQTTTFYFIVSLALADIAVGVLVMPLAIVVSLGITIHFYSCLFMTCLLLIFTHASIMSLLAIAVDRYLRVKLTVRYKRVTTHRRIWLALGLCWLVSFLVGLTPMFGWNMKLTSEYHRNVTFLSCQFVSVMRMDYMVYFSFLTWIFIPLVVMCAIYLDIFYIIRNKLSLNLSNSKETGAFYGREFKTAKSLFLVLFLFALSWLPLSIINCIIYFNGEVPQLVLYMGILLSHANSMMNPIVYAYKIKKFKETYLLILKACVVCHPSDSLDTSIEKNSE

Adenosine receptor A2a [2] = target: T2, Adenosine receptor A2a (Homo sapiens, UniProt P29274); assay: Displacement of [3H]CGS21680 from human recombinant adenosine A2a receptor expressed in HEK293 cells by liquid scintillation counting; format: cell-based
[3] = target: T3, Adenosine receptor A1 (Homo sapiens) (UniProt P30542); assay: Displacement of [3H]NECA from human recombinant adenosine A1 receptor expressed in CHO cells at 10 uM by liquid scintillation counting; format: cell-based
T3 sequence (whole entry): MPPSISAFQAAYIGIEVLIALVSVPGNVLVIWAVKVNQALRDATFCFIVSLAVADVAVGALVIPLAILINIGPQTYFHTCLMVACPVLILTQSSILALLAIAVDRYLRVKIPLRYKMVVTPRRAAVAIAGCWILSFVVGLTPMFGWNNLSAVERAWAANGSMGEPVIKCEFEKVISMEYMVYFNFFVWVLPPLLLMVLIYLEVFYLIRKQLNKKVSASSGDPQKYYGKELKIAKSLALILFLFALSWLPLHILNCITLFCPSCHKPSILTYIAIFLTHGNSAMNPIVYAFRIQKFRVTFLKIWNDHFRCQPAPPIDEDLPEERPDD

Adenosine receptor A2a [4] = target: T2, Adenosine receptor A2a; assay: Displacement of [3H]CGS21680 from human recombinant adenosine A2a receptor expressed in HEK293 cells at 10 uM by liquid scintillation counting; format: cell-based
Adenosine receptor A3 [5] = target: T4, Adenosine receptor A3 (Rattus norvegicus, UniProt P28647); assay: Binding affinity to rat adenosine A3 receptor
T4 sequence (P28647 whole entry): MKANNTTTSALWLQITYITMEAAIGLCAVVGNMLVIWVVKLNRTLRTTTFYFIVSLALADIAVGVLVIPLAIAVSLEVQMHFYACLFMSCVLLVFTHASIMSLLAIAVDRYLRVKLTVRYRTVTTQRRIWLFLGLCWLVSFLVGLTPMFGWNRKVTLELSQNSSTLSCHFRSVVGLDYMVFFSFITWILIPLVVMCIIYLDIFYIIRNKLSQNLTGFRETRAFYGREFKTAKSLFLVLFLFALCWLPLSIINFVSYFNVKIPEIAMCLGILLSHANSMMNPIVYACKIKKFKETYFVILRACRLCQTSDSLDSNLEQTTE

T2 sequence (P29274 whole entry): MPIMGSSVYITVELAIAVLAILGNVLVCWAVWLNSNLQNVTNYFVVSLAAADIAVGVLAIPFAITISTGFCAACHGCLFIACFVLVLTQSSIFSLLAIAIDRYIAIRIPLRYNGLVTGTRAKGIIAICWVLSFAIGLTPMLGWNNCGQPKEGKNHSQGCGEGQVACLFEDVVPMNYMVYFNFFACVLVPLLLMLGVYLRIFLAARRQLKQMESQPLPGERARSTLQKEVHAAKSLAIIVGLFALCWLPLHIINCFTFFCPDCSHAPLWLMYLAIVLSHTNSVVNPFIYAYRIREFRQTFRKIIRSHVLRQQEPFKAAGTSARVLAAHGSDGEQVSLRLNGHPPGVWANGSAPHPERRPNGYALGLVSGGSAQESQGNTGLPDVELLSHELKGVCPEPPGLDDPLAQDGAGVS

SMILES | Ki (Adenosine receptor A3 [1]) | Ki (Adenosine receptor A2a [2]) | inhibition [3] | inhibition (Adenosine receptor A2a [4]) | Ki (Adenosine receptor A3 [5])
O[C@@H]1[C@H](O)CO[C@H]1n1cnc2c(NCc3cccc(I)c3)ncnc21 | 90.2 nM | 997 nM | – | – | –
O[C@@H]1[C@H](O)CO[C@H]1n1cnc2c(NCc3cccc(Cl)c3)ncnc21 | 76.1 nM | 3410 nM | – | – | –
CNc1nc(Cl)nc2c1ncn2[C@@H]1OC[C@@H](O)[C@H]1O | 37.5 nM | – | 49% | 15% | –
O[C@@H]1[C@H](O)CO[C@H]1n1cnc2c(NCc3cccc(Br)c3)ncnc21 | 59 nM | 1400 nM | – | – | –
O[C@@H]1[C@H](O)CO[C@H]1n1cnc2c(NCc3cccc(I)c3)nc(Cl)nc21 | – | – | – | 43% | –

Continued, values first:

Ki (Adenosine receptor A3 [1]) | Ki (Adenosine receptor A2a [2]) | inhibition [3] | inhibition (Adenosine receptor A2a [4]) | Ki (Adenosine receptor A3 [5]) | SMILES
537 nM | 6560 nM | 36% | – | – | O[C@@H]1[C@H](O)CO[C@H]1n1cnc2c(NCc3cccc(F)c3)ncnc21
– | – | – | 30% | 82.8 nM | O[C@@H]1[C@H](O)CO[C@H]1n1cnc2c(NCc3cccc(Br)c3)nc(Cl)nc21
284 nM | – | 43% | 42% | – | O[C@@H]1[C@H](O)CO[C@H]1n1cnc2c(NCc3cccc(F)c3)nc(Cl)nc21
75 nM | 3630 nM | – | – | – | O[C@@H]1[C@H](O)CO[C@H]1n1cnc2c(NCc3cccc(Cl)c3)nc(Cl)nc21
70.1 nM | – | 44% | 25% | – | CNc1ncnc2c1ncn2[C@@H]1OC[C@@H](O)[C@H]1O
